Results: publication PMC7855930, “Nontoxic Cobalt(III) Schiff Base Complexes with Broad‐Spectrum Antifungal Activity” (Chemistry (Weinheim an Der Bergstrasse, Germany), 2020)
In brackets after ≈: the same amount, converted by molar mass. Where two headings read alike, the source gives them in different places. Starred links: 1 amine or outer side, 2 acyl side, 3 side chain; linkers in the order of their positions; H or OH if unused. Positions of bridges follow the written chain, without caps; N, C: chain ends. Non-standard residues stand in square brackets, D forms with d. Residues, ends and D or L forms follow the SMILES beside them. *: point of attachment. hTyr(3S-OH,4S-OH,3'-OSO3H) = N[C@H](C(=O)O)[C@H](O)[C@@H](O)c1ccc(O)c(OS(=O)(=O)O)c1; Orn(4R-OH,5R-OH) = O=C([C@H](C[C@@H](O)[C@@H](O)N[*:3])N[*:1])[*:2]; Pro(3S-OH,4S-Me) = C[C@H]1CN[C@H](C(=O)O)[C@H]1O; X1 = CCCCCOc1ccc(-c2cc(-c3ccc(C(=O)*)cc3)no2)cc1; Gln(3R-OH) = NC(=O)C[C@@H](O)[C@H](N)C(=O)O; Hyp = O=C(O)[C@@H]1C[C@@H](O)CN1

Tests used:
C. tropicalis ATCC 750 = assay: Antifungal MIC assay (broth microdilution in YNB); format: cell-based, Candida tropicalis; settings: Candida tropicalis
Description: (§1) Yeast strains: Candida albicans (ATCC 90028, NCCLS 11), Cryptococcus neoformans (ATCC 208821, H99 type strain), Candida tropicalis (ATCC 750, type strain), Candida glabrata (ATCC 90030, NCCLS 84) and Cryptococcus deuterogattii (ATCC 32609, type strain) were obtained from the American Type Culture Collection (ATCC). Cryptococcus deuterogattii (CBS 7750), Candida auris (CBS 10913) and Candida auris (CBS 12373) were obtained from the CBS‐KNAW culture collection. The strains were maintained on glycerol/YPD (yeast extract‐peptone dextrose) broth (20:80 v/v) at −80 °C.
(§2) Antifungal minimum inhibitory concentration (MIC) assay: The cobalt complexes and antifungal control compounds were serially diluted in 50 μL of Yeast Nitrogen Broth (YNB; BD, Cat No. 233520 supplemented with 2 % glucose and 10 mM ammonium sulfate) two‐fold across the wells of non‐binding surface (NBS) 96‐well plates (Corning; Cat. No. 3641). Plates were set up in quadruplicate for each strain tested, and two biological replicates were conducted on separate assay days.
(§3) Yeast strains were cultured from glycerol onto YPD (Becton Dickinson 242720) agar at 30 °C for 72 h. For each strain, a minimum of five single colonies were taken from the agar plate and dissolved in sterile water and adjusted to form a yeast suspension of 1×10^6 to 5×10^6 CFU mL^−1 (as determined by OD530). The suspension was subsequently diluted into YNB media, and added to each well of the compound containing plates, giving a final cell density of 2.5×10^3 CFU mL^−1 and a total volume of 100 μL. Plates were covered and incubated at 35 °C for 36 h without shaking.
(§4) Growth inhibition of all strains was determined visually where the MIC was recorded as the lowest compound concentration with no visible growth. Fluconazole (Sigma F8929), ketoconazole (Sigma K1003) and micafungin (Sigma SML2288) were used as internal positive inhibitor controls for every strain tested.

[1] = test system: C. deuterogattii ATCC 32609; assay: Antifungal MIC assay (broth microdilution in YNB); format: cell-based, Cryptococcus deuterogattii; settings: Cryptococcus deuterogattii
Description: as §1, §2, §3, §4

[2] = test system: C. deuterogattii CBS 7750; assay: Antifungal MIC assay (broth microdilution in YNB); format: cell-based, Cryptococcus deuterogattii; settings: Cryptococcus deuterogattii
Description: as §1, §2, §3, §4

C. glabrata ATCC 90030 = assay: Antifungal MIC assay (broth microdilution in YNB); format: cell-based, Candida glabrata; settings: Nakaseomyces glabratus
Description: as §1, §2, §3, §4

C. albicans ATCC 90028 = assay: Antifungal MIC assay (broth microdilution in YNB); format: cell-based, Candida albicans; settings: Candida albicans
Description: as §1, §2, §3, §4

C. auris CBS 12373 = assay: Antifungal MIC assay (broth microdilution in YNB); format: cell-based, Candida auris; settings: Candidozyma auris
Description: as §1, §2, §3, §4

C. auris CBS 10913 = assay: Antifungal MIC assay (broth microdilution in YNB); format: cell-based, Candida auris; settings: Candidozyma auris
Description: as §1, §2, §3, §4

[3] = test system: C. neoformans ATCC 208821; assay: Antifungal MIC assay (broth microdilution in YNB); format: cell-based, Cryptococcus neoformans; settings: Cryptococcus neoformans
Description: as §1, §2, §3, §4

[4] = test system: Staphylococcus aureus ATCC 43300 (MRSA); assay: CO-ADD bacterial broth microdilution MIC assay; format: cell-based; settings: Staphylococcus aureus, 18 h, read-out: MIC Sa (Staphylococcus aureus ATCC 43300, MRSA)
Procedure: (§5) CO-ADD High Throughput Screening
(§6) Bacterial broth microdilution minimum inhibitory concentration (MIC) assay Bacterial strains were cultured in Cation-adjusted Mueller Hinton broth (CAMHB; Bacto Laboratories 212322) at 37 °C overnight. A sample of each culture was then diluted 40-fold in fresh CAMHB and incubated at 37 °C for 1.5-3 h. The resultant mid-log phase cultures were diluted with CAMHB (CFU/mL measured by OD600), then added to each well of the compound-containing plates (384-well non-binding surface (NBS) plates; Corning CLS3640), giving a cell density of 5 × 10^5 CFU/mL and a total volume of 50 µL. Plates were covered and incubated at 37 °C for 18 h without shaking. Inhibition of bacterial growth was determined measuring absorbance at 600 nm (OD600), using media only as negative control and bacteria without inhibitors as positive control. MIC values were determined as the lowest concentration at which the growth was inhibited at ≥ 80%. Colistin sulfate (Sigma C4461) and vancomycin HCl (Sigma 861987) were used as positive inhibitor controls on each plate for Gram-negative and Gram-positive bacteria, respectively.
(§7) Figure S1. 1H NMR (400 MHz) of [Co(ATS)(DMAP)2]NO3 (3) in DMSO-d6.
(§8) (1 picture or pasted object on this page, not shown here)

[5] = test system: Klebsiella pneumoniae ATCC 700603 (K6; ESBL SHV-18); format: cell-based; settings: CAMHB, 37 °C, 18 h, ≥ 80% inhibition
Procedure: as §5, §6, §7, §8

[6] = test system: Escherichia coli ATCC 25922; assay: CO-ADD bacterial broth microdilution MIC assay; format: cell-based; settings: CAMHB, 37 °C, 18 h, ≥ 80% inhibition
Procedure: as §5, §6, §7, §8

[7] = test system: Acinetobacter baumannii ATCC 19606; assay: CO-ADD bacterial broth microdilution MIC assay; format: cell-based; settings: CAMHB, 37 °C, 18 h, ≥ 80% inhibition
Procedure: as §5, §6, §7, §8

[8] = test system: Pseudomonas aeruginosa ATCC 27853; assay: CO-ADD bacterial broth microdilution MIC assay; format: cell-based; settings: CAMHB, 37 °C, 18 h, ≥ 80% inhibition
Procedure: as §5, §6, §7, §8

[9] = ATCC750, Table S1, read-out: MIC Candida tropicalis ATCC 750
[10] = ATCC750, range of MICs, n=8, 35 °C, 36 h, visual, read-out: MIC C. tropicalis ATCC 750
[11] = ATCC32609, Table S1, read-out: MIC Cryptococcus deuterogattii ATCC 32609
[12] = ATCC32609, range of MICs, n=8, 35 °C, 36 h, visual, read-out: MIC C. deuterogattii ATCC 32609
[13] = CBS7750, Table S1, read-out: MIC Cryptococcus deuterogattii CBS 7750
[14] = CBS7750, range of MICs, n=8, 35 °C, 36 h, visual, read-out: MIC C. deuterogattii CBS 7750
[15] = ATCC90030, Table S1, read-out: MIC Candida glabrata ATCC 90030
[16] = ATCC90030, range of MICs, n=8, 35 °C, 36 h, visual, read-out: MIC C. glabrata ATCC 90030
[17] = ATCC90028, Table S1, read-out: MIC Candida albicans ATCC 90028
[18] = ATCC90028, range of MICs, n=8, 35 °C, 36 h, visual, read-out: MIC C. albicans ATCC 90028
[19] = CBS12373, Table S1, read-out: MIC Candida auris CBS 12373
[20] = CBS12373, range of MICs, n=8, 35 °C, 36 h, visual, read-out: MIC C. auris CBS 12373
[21] = CBS10913, Table S1, read-out: MIC Candida auris CBS 10913
[22] = CBS10913, range of MICs, n=8, 35 °C, 36 h, visual, read-out: MIC C. auris CBS 10913
[23] = ATCC208821, Table S1, read-out: MIC Cryptococcus neoformans ATCC 208821
[24] = ATCC208821, range of MICs, n=8, 35 °C, 36 h, visual, read-out: MIC C. neoformans ATCC 208821

Row | Compound | MIC (C. tropicalis ATCC 750; [9]) [µg/mL] | MIC (C. tropicalis ATCC 750; [10]) [µM] | MIC [1, 11] [µg/mL] | MIC [1, 12] [µM] | MIC [2, 13] [µg/mL] | MIC [2, 14] [µM] | MIC (C. glabrata ATCC 90030; [15]) [µg/mL] | MIC (C. glabrata ATCC 90030; [16]) [µM] | MIC (C. albicans ATCC 90028; [17]) [µg/mL] | MIC (C. albicans ATCC 90028; [18]) [µM] | MIC (C. auris CBS 12373; [19]) [µg/mL] | MIC (C. auris CBS 12373; [20]) [µM] | MIC (C. auris CBS 10913; [21]) [µg/mL] | MIC (C. auris CBS 10913; [22]) [µM] | MIC [3, 23] [µg/mL] | MIC [3, 24] [µM] | further results
1 | OC(Cn1cncn1)(Cn1cncn1)c1ccc(F)cc1F [FCZ, Fluconazole, reference compound] | > 64 | > 209 | 8 to 16 | 26.1 to 52.2 | 8 | 26.1 | > 64 | > 209 | 2 | 6.53 | > 64 | > 209 | 16 | 52.2 | 16 | 52.2 | 
2 | CC(=O)N1CCN(c2ccc(OCC3COC(Cn4ccnc4)(c4ccc(Cl)cc4Cl)O3)cc2)CC1 (stereo not shown) [KCZ, Ketoconazole, reference compound] | 16 | 30.1 | 1 | 1.88 | 0.5 to 1 | 0.94 to 1.88 | 32 | 60.2 | 0.5 | ≤ 0.94 | 2 | 3.76 | 0.5 | ≤ 0.94 | 1 to 2 | 1.88 to 3.76 | 
3 | CCCCCOc1ccc(-c2cc(-c3ccc(C(=O)N[C@H]4C[C@@H](O)[C@@H](O)NC(=O)[C@@H]5[C@@H](O)[C@@H](C)CN5C(=O)[C@H]([C@H](O)CC(N)=O)NC(=O)[C@H]([C@H](O)[C@@H](O)c5ccc(O)c(OS(=O)(=O)O)c5)NC(=O)[C@@H]5C[C@@H](O)CN5C(=O)[C@H]([C@@H](C)O)NC4=O)cc3)no2)cc1 [MFG, Micafungin, reference compound] (X1-[Orn(4R-OH,5R-OH)]T[Hyp][hTyr(3S-OH,4S-OH,3'-OSO3H)][Gln(3R-OH)][Pro(3S-OH,4S-Me)]; lactam 1-C) |  |  |  |  |  |  |  |  |  |  |  |  |  |  |  |  | MIC (C. tropicalis ATCC 750; ATCC750, 36 h, read-out: MIC C. tropicalis ATCC 750): ≤ 0.39 µM; MIC (C. tropicalis ATCC 750; ATCC750, read-out: MIC Candida tropicalis ATCC 750): 0.5 µg/mL; MIC ([1]; ATCC32609, 36 h, read-out: MIC C. deuterogattii ATCC 32609): > 49.5 µM; MIC ([1]; ATCC32609, read-out: MIC Cryptococcus deuterogattii ATCC 32609): > 64 µg/mL; MIC ([2]; CBS7750, 36 h, read-out: MIC C. deuterogattii CBS 7750): > 49.5 µM; MIC ([2]; CBS7750, read-out: MIC Cryptococcus deuterogattii CBS 7750): > 64 µg/mL; MIC (C. glabrata ATCC 90030; ATCC90030, 36 h, read-out: MIC C. glabrata ATCC 90030): ≤ 0.39 µM; MIC (C. glabrata ATCC 90030; ATCC90030, read-out: MIC Candida glabrata ATCC 90030): 0.5 µg/mL; MIC (C. albicans ATCC 90028; ATCC90028, 36 h, read-out: MIC C. albicans ATCC 90028): ≤ 0.39 µM; MIC (C. albicans ATCC 90028; ATCC90028, read-out: MIC Candida albicans ATCC 90028): 0.5 µg/mL; MIC (C. auris CBS 12373; CBS12373, 36 h, read-out: MIC C. auris CBS 12373): ≤ 0.39 µM; MIC (C. auris CBS 12373; CBS12373, read-out: MIC Candida auris CBS 12373): 0.5 µg/mL; MIC (C. auris CBS 10913; CBS10913, 36 h, read-out: MIC C. auris CBS 10913): ≤ 0.39 µM; MIC ([3]; ATCC208821, 36 h, read-out: MIC C. neoformans ATCC 208821): > 49.5 µM; MIC ([3]; ATCC208821, read-out: MIC Cryptococcus neoformans ATCC 208821): > 64 µg/mL
4 | CN[C@H](CC(C)C)C(=O)N[C@H]1C(=O)N[C@@H](CC(N)=O)C(=O)N[C@H]2C(=O)N[C@H]3C(=O)N[C@H](C(=O)N[C@H](C(=O)O)c4cc(O)cc(O)c4-c4cc3ccc4O)[C@H](O)c3ccc(c(Cl)c3)Oc3cc2cc(c3O[C@@H]2O[C@H](CO)[C@@H](O)[C@H](O)[C@H]2O[C@H]2C[C@](C)(N)[C@H](O)[C@H](C)O2)Oc2ccc(cc2Cl)[C@H]1O [Van, Vancomycin, reference compound] |  |  |  |  |  |  |  |  |  |  |  |  |  |  |  |  | MIC [4]: 1 µg/mL (≈ 0.69 µM)
5 | Colistin [reference compound] |  |  |  |  |  |  |  |  |  |  |  |  |  |  |  |  | MIC Kp (Klebsiella pneumoniae ATCC 700603) [5]: 0.25 µg/mL; MIC Ec (Escherichia coli ATCC 25922) [6]: 0.125 µg/mL; MIC Ab (Acinetobacter baumannii ATCC 19606) [7]: 0.25 µg/mL; MIC Pa (Pseudomonas aeruginosa ATCC 27853) [8]: 0.25 µg/mL
